In US8410161B2, “Thioxanthone ring system derivatives” (National Defense Medical Center, priority 2010, dated 2013):

What was measured:
ACHN = test: NCI in vitro DTP human cell line screen, ACHN; type: cell-based; conditions: Renal Cancer, 1.00E−5 Molar
Procedure: (§1) Then, a cell toxicity assay of the cancer lines made by National Cancer Institute will be discussed as follows. The cell toxicity assay is performed by choosing ten compounds (existing certification numbers) from the 59 compounds disclosed in the present invention first.

OVCAR-3 = test: NCI in vitro DTP human cell line screen, OVCAR-3; type: cell-based; conditions: Ovarian Cancer, 1.00E−5 Molar
Procedure: as §1

DU145 = test: NCI in vitro DTP human cell line screen, DU145; type: cell-based; conditions: Prostate Cancer, 1.00E−5 Molar
Procedure: as §1

UACC-257 = test: NCI in vitro DTP human cell line screen, UACC-257; type: cell-based; conditions: Melanoma, 1.00E−5 Molar
Procedure: as §1

OVCAR-5 = test: NCI in vitro DTP human cell line screen, OVCAR-5; type: cell-based; conditions: Ovarian Cancer, 1.00E−5 Molar
Procedure: as §1

SNB-75 = test: NCI in vitro DTP human cell line screen, SNB-75; type: cell-based; conditions: CNS Cancer, 1.00E−5 Molar
Procedure: as §1

NCI/ADR-RES = test: NCI in vitro DTP human cell line screen, NCI/ADR-RES; type: cell-based; conditions: Ovarian Cancer, 1.00E−5 Molar
Procedure: as §1

MDA-MB-468 = test: NCI in vitro DTP human cell line screen, MDA-MB-468; type: cell-based; conditions: Breast Cancer, 1.00E−5 Molar
Procedure: as §1

786-0 = test: NCI in vitro DTP human cell line screen, 786-0; type: cell-based; conditions: Renal Cancer, 1.00E−5 Molar
Procedure: as §1

SK-MEL-2 = test: NCI in vitro DTP human cell line screen, SK-MEL-2; type: cell-based; conditions: Melanoma, 1.00E−5 Molar
Procedure: as §1

HS 578-T = test: NCI in vitro DTP human cell line screen, HS 578-T; type: cell-based; conditions: Breast Cancer, 1.00E−5 Molar
Procedure: as §1

MCF7 = test: NCI in vitro DTP human cell line screen, MCF7; type: cell-based; conditions: Breast Cancer, 1.00E−5 Molar
Procedure: as §1

IGROV1 = test: NCI in vitro DTP human cell line screen, IGROV1; type: cell-based; conditions: Ovarian Cancer, 1.00E−5 Molar
Procedure: as §1

A3 cell lines = test: MTT assay, A3 cell lines (lung cancer stem cell); type: cell-based
Source text: Please to FIG. 4B, various cell viabilities of the A3 cell lines can be obtained through the MTT assay and illustrated in FIG. 4B while the compounds No. 1˜30 are used to treat A3 cell lines, wherein A3 cell lines are lung cancer stem cell.

HCT-116 = test: NCI in vitro DTP human cell line screen, HCT-116; type: cell-based; conditions: Colon Cancer, 1.00E−5 Molar
Procedure: as §1

HL-60(TB) = test: NCI in vitro DTP human cell line screen, HL-60(TB); type: cell-based; conditions: Leukemia, 1.00E−5 Molar
Procedure: as §1

MOLT-4 = test: NCI in vitro DTP human cell line screen, MOLT-4; type: cell-based; conditions: Leukemia, 1.00E−5 Molar
Procedure: as §1

SW-620 = test: NCI in vitro DTP human cell line screen, SW-620; type: cell-based; conditions: Colon Cancer, 1.00E−5 Molar
Procedure: as §1

NCI-H322M = test: NCI in vitro DTP human cell line screen, NCI-H322M; type: cell-based; conditions: Non-Small Cell Lung Cancer, 1.00E−5 Molar
Procedure: as §1

A control cell lines = test: MTT assay, A control cell lines (lung cancer cell); type: cell-based
Source text: Please refer to Table 1 and FIGS. 4A-4C. According to a MTT assay (Table 1), various cell viabilities of the A control cell lines can be obtained and illustrated in FIG. 4A while the compounds No. 2˜30 are used to treat A control cell lines, wherein A control cell lines are lung cancer cell.

OVCAR-4 = test: NCI in vitro DTP human cell line screen, OVCAR-4; type: cell-based; conditions: Ovarian Cancer, 1.00E−5 Molar
Procedure: as §1

60 cancer lines = test: NCI cell toxicity assay of 60 cancer lines, whole panel summary; type: cell-based, human; conditions: mean over all cell lines; 1.00E−5 Molar
Procedure: as §1

SK-MEL-28 = test: NCI in vitro DTP human cell line screen, SK-MEL-28; type: cell-based; conditions: Melanoma, 1.00E−5 Molar
Procedure: as §1

SF-539 = test: NCI in vitro DTP human cell line screen, SF-539; type: cell-based; conditions: CNS Cancer, 1.00E−5 Molar
Procedure: as §1

RXF 393 = test: NCI in vitro DTP human cell line screen, RXF 393; type: cell-based; conditions: Renal Cancer, 1.00E−5 Molar
Procedure: as §1

SK-MEL-5 = test: NCI in vitro DTP human cell line screen, SK-MEL-5; type: cell-based; conditions: Melanoma, 1.00E−5 Molar
Procedure: as §1

SR = test: NCI in vitro DTP human cell line screen, SR; type: cell-based; conditions: Leukemia, 1.00E−5 Molar
Procedure: as §1

[1] = MTT assay, HEL299 fibroblast; type: cell-based; conditions: human
Source text: Please refer to FIG. 4C, various cell viabilities of the HEL299 cell lines can be obtained through the MTT assay while the compounds No. 1˜30 are used to treat HEL299 cell lines, wherein HEL299 cell lines are fibroblast.

SF-295 = test: NCI in vitro DTP human cell line screen, SF-295; type: cell-based; conditions: CNS Cancer, 1.00E−5 Molar
Procedure: as §1

LOX IMVI = test: NCI in vitro DTP human cell line screen, LOX IMVI; type: cell-based; conditions: Melanoma, 1.00E−5 Molar
Procedure: as §1

HCC-2998 = test: NCI in vitro DTP human cell line screen, HCC-2998; type: cell-based; conditions: Colon Cancer, 1.00E−5 Molar
Procedure: as §1

SF-268 = test: NCI in vitro DTP human cell line screen, SF-268; type: cell-based; conditions: CNS Cancer, 1.00E−5 Molar
Procedure: as §1

BT-549 = test: NCI in vitro DTP human cell line screen, BT-549; type: cell-based; conditions: Breast Cancer, 1.00E−5 Molar
Procedure: as §1

M14 = test: NCI in vitro DTP human cell line screen, M14; type: cell-based; conditions: Melanoma, 1.00E−5 Molar
Procedure: as §1

NCI-H460 = test: NCI in vitro DTP human cell line screen, NCI-H460; type: cell-based; conditions: Non-Small Cell Lung Cancer, 1.00E−5 Molar
Procedure: as §1

MDA-MB-435 = test: NCI in vitro DTP human cell line screen, MDA-MB-435; type: cell-based; conditions: Melanoma, 1.00E−5 Molar
Procedure: as §1

UO-31 = test: NCI in vitro DTP human cell line screen, UO-31; type: cell-based; conditions: Renal Cancer, 1.00E−5 Molar
Procedure: as §1

U251 = test: NCI in vitro DTP human cell line screen, U251; type: cell-based; conditions: CNS Cancer, 1.00E−5 Molar
Procedure: as §1

SK-OV-3 = test: NCI in vitro DTP human cell line screen, SK-OV-3; type: cell-based; conditions: Ovarian Cancer, 1.00E−5 Molar
Procedure: as §1

TK-10 = test: NCI in vitro DTP human cell line screen, TK-10; type: cell-based; conditions: Renal Cancer, 1.00E−5 Molar
Procedure: as §1

EKVX = test: NCI in vitro DTP human cell line screen, EKVX; type: cell-based; conditions: Non-Small Cell Lung Cancer, 1.00E−5 Molar
Procedure: as §1

NCI-H522 = test: NCI in vitro DTP human cell line screen, NCI-H522; type: cell-based; conditions: Non-Small Cell Lung Cancer, 1.00E−5 Molar
Procedure: as §1

HT29 = test: NCI in vitro DTP human cell line screen, HT29; type: cell-based; conditions: Colon Cancer, 1.00E−5 Molar
Procedure: as §1

COLO 205 = test: NCI in vitro DTP human cell line screen, COLO 205; type: cell-based; conditions: Colon Cancer, 1.00E−5 Molar
Procedure: as §1

PC-3 = test: NCI in vitro DTP human cell line screen, PC-3; type: cell-based; conditions: Prostate Cancer, 1.00E−5 Molar
Procedure: as §1

OVCAR-8 = test: NCI in vitro DTP human cell line screen, OVCAR-8; type: cell-based; conditions: Ovarian Cancer, 1.00E−5 Molar
Procedure: as §1

T-47D = test: NCI in vitro DTP human cell line screen, T-47D; type: cell-based; conditions: Breast Cancer, 1.00E−5 Molar
Procedure: as §1

KM12 = test: NCI in vitro DTP human cell line screen, KM12; type: cell-based; conditions: Colon Cancer, 1.00E−5 Molar
Procedure: as §1

HCT-15 = test: NCI in vitro DTP human cell line screen, HCT-15; type: cell-based; conditions: Colon Cancer, 1.00E−5 Molar
Procedure: as §1

CAKI-1 = test: NCI in vitro DTP human cell line screen, CAKI-1; type: cell-based; conditions: Renal Cancer, 1.00E−5 Molar
Procedure: as §1

NCI-H226 = test: NCI in vitro DTP human cell line screen, NCI-H226; type: cell-based; conditions: Non-Small Cell Lung Cancer, 1.00E−5 Molar
Procedure: as §1

RPMI-8226 = test: NCI in vitro DTP human cell line screen, RPMI-8226; type: cell-based; conditions: Leukemia, 1.00E−5 Molar
Procedure: as §1

MALME-3M = test: NCI in vitro DTP human cell line screen, MALME-3M; type: cell-based; conditions: Melanoma, 1.00E−5 Molar
Procedure: as §1

K562 = test: NCI in vitro DTP human cell line screen, K562; type: cell-based; conditions: Leukemia, 1.00E−5 Molar
Procedure: as §1

NCI-H23 = test: NCI in vitro DTP human cell line screen, NCI-H23; type: cell-based; conditions: Non-Small Cell Lung Cancer, 1.00E−5 Molar
Procedure: as §1

Structure (SMILES): COc1cccc(Sc2ccc3c(=O)c4ccccc4sc3c2Cl)c1 [No. 16, 4-Chloro-3-(3-methoxylphenylthio)-9H-thioxanthen-9-one]
- Growth Percent (ACHN): 103.08%
- Growth Percent (OVCAR-3): 113.99%
- Growth Percent (DU145): 115.18%
- Growth Percent (UACC-257): 89.21%
- Growth Percent (OVCAR-5): 94.14%
- Growth Percent (SNB-75): 86.86%
- Growth Percent (NCI/ADR-RES): 102.83%
- Growth Percent (MDA-MB-468): 104.49%
- Growth Percent (786-0): 107.97%
- Growth Percent (SK-MEL-2): 97.07%
- Growth Percent (HS 578-T): 103.73%
- Growth Percent (MCF7): 88.94%
- Growth Percent (IGROV1): 108.37%
- cell viabilities of A3 cell lines (MTT assay) (A3 cell lines): 90.0 ± 1.24%
- Growth Percent (HCT-116): 101.88%
- Growth Percent (HL-60(TB)): 115.43%
- Growth Percent (MOLT-4): 111.47%
- Growth Percent (SW-620): 106.14%
- Growth Percent (NCI-H322M): 118.28%
- cell viabilities of A control cell lines (MTT assay) (A control cell lines): 91.8 ± 3.07%
- Growth Percent (OVCAR-4): 99.88%
- Growth Percent, Mean (60 cancer lines): 101.65%
- Growth Percent (SK-MEL-28): 109.16%
- Growth Percent (SF-539): 100.06%
- Growth Percent (RXF 393): 112.67%
- Growth Percent (SK-MEL-5): 96.73%
- Growth Percent (SR): 99.21%
- viability [1]: 90.6 ± 11.5%
- Growth Percent (SF-295): 108.18%
- Growth Percent (LOX IMVI): 93.53%
- Growth Percent (HCC-2998): 103.45%
- Growth Percent (SF-268): 104.10%
- Growth Percent (BT-549): 112.48%
- Growth Percent (M14): 111.90%
- Growth Percent (NCI-H460): 108.81%
- Growth Percent (MDA-MB-435): 100.32%
- Growth Percent (UO-31): 98.31%
- Growth Percent (U251): 93.76%
- Growth Percent (SK-OV-3): 104.91%
- Growth Percent (TK-10): 95.23%
- Growth Percent (EKVX): 96.56%
- Growth Percent (NCI-H522): 86.09%
- Growth Percent (HT29): 91.02%
- Growth Percent (COLO 205): 113.53%
- Growth Percent (PC-3): 98.58%
- Growth Percent (OVCAR-8): 94.29%
- Growth Percent (T-47D): 92.09%
- Growth Percent (KM12): 114.13%
- Growth Percent (HCT-15): 94.87%
- Growth Percent (CAKI-1): 101.23%
- Growth Percent (NCI-H226): 95.11%
- Growth Percent (RPMI-8226): 99.57%
- Growth Percent (MALME-3M): 94.91%
- Growth Percent (K562): 97.79%
- Growth Percent (NCI-H23): 92.69%
